Columns and labels:
[1] = tested on: E. coli 52; assay: Checkerboard broth microdilution MIC of cefepime alone and with taniborbactam; format: cell-based, Escherichia coli
Description: (§1) Four previously well-characterized cefepime-resistant isolates, namely one ESBL-producing E. coli, one ESBL-producing K. pneumoniae and two P. aeruginosa (one VIM- and one AmpC constitutively -producing), were used.

[2] = tested on: K. pneumoniae 59; assay: as above; format: cell-based, Klebsiella pneumoniae
Description: as §1

[3] = tested on: two ESBL-producing Enterobacterales and one AmpC- and one VIM-producing P. aeruginosa isolates; assay: Checkerboard broth microdilution MIC, all four strains together; format: cell-based
Description: as §1

[4] = Protein binding, equilibrium dialysis chamber, LC-MS/MS; format: in vitro ADME
Description: […]. […] […].
. […] Free drug concentrations were used in all calculations. […]

[5] = tested on: E. coli 52; assay: Neutropenic murine thigh infection model; format: in vivo, Escherichia coli
Description: (§2) All dosing regimens were performed in at least two animals per dosing regimen.
(§3) At t = 0 h, 2 h after infection, two mice were humanely euthanized to determine the initial number of cfu/thigh just before treatment. […] Subsequently, thighs were homogenized using the Ultra-Turrax homogenizer (IKA Labortechnik, Germany). For each thigh 10-fold dilution series were prepared and 3 × 10 µL per dilution were plated (Chromagar, bioMérieux, NL). The following day, colonies were counted and the number of cfu/thigh was calculated.
(§4) Free drug concentrations were used in all calculations.

[6] = tested on: P. aeruginosa 106; assay: Neutropenic murine thigh infection model; format: in vivo, Pseudomonas aeruginosa
Description: as §2, §3, §4

[7] = tested on: P. aeruginosa 132; assay: Neutropenic murine thigh infection model; format: in vivo, Pseudomonas aeruginosa
Description: as §2, §3, §4

[8] = tested on: KPC K. pneumoniae; settings: KPC K. pneumoniae strain of previous animal study, cited from earlier work
[9] = tested on: KPC P. aeruginosa; settings: KPC P. aeruginosa strain of previous animal study, cited from earlier work
[10] = human simulated regimen of cefepime 2 g q8h as 2 h infusion; cited from earlier work
[11] = cefepime monotherapy q2h, extrapolated
[12] = cefepime monotherapy, extrapolated

## CO/N=C(\C(=O)N[C@@H]1C(=O)N2C(C(=O)[O-])=C(C[N+]3(C)CCCC3)CS[C@H]12)c1csc(N)n1 [cefepime, Cefepime]
[1]; E. coli 52, +taniborbactam 0.03 mg/L
  Cefepime MIC at taniborbactam 0.03 mg/L: 0.5 µg/mL
[1]; E. coli 52, +taniborbactam 0.06 mg/L
  Cefepime MIC at taniborbactam 0.06 mg/L: 0.5 µg/mL
[1]; E. coli 52, +taniborbactam 0.125 mg/L
  Cefepime MIC at taniborbactam 0.125 mg/L: 0.25 µg/mL
[1]; E. coli 52, +taniborbactam 0.25 mg/L
  Cefepime MIC at taniborbactam 0.25 mg/L: 0.125 µg/mL
[1]; E. coli 52, +taniborbactam 0.5 mg/L
  Cefepime MIC at taniborbactam 0.5 mg/L: 0.06 µg/mL
[1]; E. coli 52, +taniborbactam 1 mg/L
  Cefepime MIC at taniborbactam 1 mg/L: 0.125 µg/mL
[1]; E. coli 52, +taniborbactam 2 mg/L
  Cefepime MIC at taniborbactam 2 mg/L: 0.06 µg/mL
[1]; E. coli 52, +taniborbactam 4 mg/L
  Cefepime MIC at taniborbactam 4 mg/L (potMIC): 0.06 µg/mL
[1]; Escherichia coli, 52, read-out: Cefepime MIC (mg/L) alone
  MIC: 32 mg/L
[2]; K. pneumoniae 59, +taniborbactam 0.03 mg/L
  Cefepime MIC at taniborbactam 0.03 mg/L: 64 µg/mL
[2]; K. pneumoniae 59, +taniborbactam 0.06 mg/L
  Cefepime MIC at taniborbactam 0.06 mg/L: 32 µg/mL
[2]; K. pneumoniae 59, +taniborbactam 0.125 mg/L
  Cefepime MIC at taniborbactam 0.125 mg/L: 8 µg/mL
[2]; K. pneumoniae 59, +taniborbactam 0.25 mg/L
  Cefepime MIC at taniborbactam 0.25 mg/L: 2 µg/mL
[2]; K. pneumoniae 59, +taniborbactam 0.5 mg/L
  Cefepime MIC at taniborbactam 0.5 mg/L: 1 µg/mL
[2]; K. pneumoniae 59, +taniborbactam 1 mg/L
  Cefepime MIC at taniborbactam 1 mg/L: 1 µg/mL
[2]; K. pneumoniae 59, +taniborbactam 2 mg/L
  Cefepime MIC at taniborbactam 2 mg/L: 1 µg/mL
[2]; K. pneumoniae 59, +taniborbactam 4 mg/L
  Cefepime MIC at taniborbactam 4 mg/L (potMIC): 0.5 µg/mL
[2]; Klebsiella pneumoniae, 59, read-out: Cefepime MIC (mg/L) alone
  MIC: 256 mg/L
[3]; +taniborbactam 4 mg/L
  Cefepime MIC in the presence of 4 mg/L taniborbactam, all strains: 0.06 to 4 µg/mL
[3]; Pseudomonas aeruginosa, read-out: Cefepime MIC, all strains, cefepime alone
  MIC: 16 to 256 µg/mL
[3]; cefepime alone
  Cefepime MIC, all strains: > 8 µg/mL
[4]
  fraction unbound: 0.8
[5]; [11]
  1 log10 kill: %ƒT > MIC: (53.9) %
  1 log10 kill: Total daily dose, mg/kg: (5237.2) mg/kg
  Stasis: %ƒT > MIC: (36.5) %
[5]; cefepime monotherapy q2h s.c. 24 h, extrapolated, Emax model
  Stasis: Total daily dose, mg/kg: (1857.2) mg/kg
[5]; [12]
  1 log10 kill: q2h dose, mg/kg: (436.4) mg/kg
  Stasis: q2h dose, mg/kg: (154.8) mg/kg
[5]; cefepime q2h 4 mg/kg, potMIC 0.06 mg/L (with 4 mg/L taniborbactam)
  Cefepime %fT > potMIC: 80.70%
[6]; [11]
  1 log10 kill: %ƒT > MIC: (47.4) %
  1 log10 kill: Total daily dose, mg/kg: (3484.4) mg/kg
  Stasis: %ƒT > MIC: (36.9) %
[6]; cefepime monotherapy q2h s.c. 24 h, extrapolated
  Stasis: Total daily dose, mg/kg: (1901.6) mg/kg
[6]; [12]
  1 log10 kill: q2h dose, mg/kg: (290.4) mg/kg
  Stasis: q2h dose, mg/kg: (158.5) mg/kg
[6]; cefepime q2h 64 mg/kg, MIC 32 mg/L
  Cefepime %fT > MIC: 22.10%
[7]; cefepime monotherapy
  1 log10 kill: q2h dose, mg/kg: 59.9 mg/kg
[7]; cefepime monotherapy q2h
  1 log10 kill: %ƒT > MIC: 32.4%
  1 log10 kill: Total daily dose, mg/kg: 718.3 mg/kg
  Stasis: %ƒT > MIC: 8.9%
[7]; cefepime monotherapy q2h s.c. 24 h
  Stasis: Total daily dose: 180.8 mg/kg
[7]; cefepime q2h 8 mg/kg, potMIC 1 mg/L (with 4 mg/L taniborbactam)
  Cefepime %fT > potMIC: 46.10%
[8]
  unpotentiated cefepime MIC: > 512 µg/mL
[8]; with taniborbactam
  potentiated cefepime MIC: 2 µg/mL
[9]
  unpotentiated cefepime MIC: > 512 µg/mL
[9]; with taniborbactam
  potentiated cefepime MIC: 4 µg/mL
[10]
  fAUC0-24: ~787.8 µg·h/mL

— paper PMC12802961 (Journal of Antimicrobial Chemotherapy, 2025)
